Several values for one entry are separate records, joined by “and”; a condition that tells them apart may be missing. Identical values can stand only once. Like-named read-outs stand apart in the source and are kept apart here. Blank lines part the entries; values can stand above or below the compound they belong to.
What was measured:
[1] = Laser characteristics of pyrromethene-BF2 complexes under flashlamp excitation (Table IV); details: for Life: DMA/MeOH
[2] = cited from earlier work
[3] = Photostability in methanol under flashlamp excitation pulses
[4] = Ref [2], cited from earlier work; for λmax: 5 × 10^-6 M in ethanol
[5] = Solubility/fluorescence in various solvents (Tables I, II); type: physicochemical
Protocol: In addition, tests were conducted on the product in order to determine its solubility/fluorescence in various solvents. One property of the compositions described herein involves a variable degree of solubility/fluorescence relative to the solvents with which they are combined. Data showing a variety of different solvents combined with the product of Example I is presented below in Table I:
As in Example I, tests were conducted on the product in Example II in order to determine its fluorescence in various solvents. Data showing a variety of different solvents combined with the product of Example II is presented below in Table II: […]

[6] = Photostability under irradiation with 250 watt sun lamp; type: physicochemical
Protocol: In addition, experiments were conducted in order to determine the photostability of the product of Example I. A solution was prepared by mixing 0.1 g of the product with 50 ml of dichloromethane solvent. The solution was placed in a 100 ml round bottom flask and irradiated with light from a sun lamp (250 watts at a distance of approximately 8 inches from the flask). […] However, another solution was made by combining 0.1 g of product in 250 ml of CH3 OH and 10 ml of CH2 Cl2. Addition of the CH2 Cl2 was undertaken to obtain complete dissolution. The solution was placed in a […] and irradiated as described above. […] Thus, the use of different solvents will cause a variation in both the character and duration of fluorescence.
In addition, a further test was conducted in order to determine the photostability of the product. Specifically, 2.0 mg of the product in a 100 ml round bottom flask was dissolved in 50 ml of H2 O. The solution was then irradiated by light from a 250 watt sun lamp placed approximately 8 inches from the flask. UV spectral data was recorded periodically as shown below in Table III.

[7] = Fluorescence (λf, quantum yield); type: physicochemical; details: for .PHI.f (fluorescence quantum yield): ethanol, excitation 450 and 460 nm, reference acridine orange
Protocol: Instruments for spectroscopic measurements included: Perkin-Elmer 1600 FTIR, Varian Gernini 300 NMR, Hewlett-Packard 5985 (70 eV) GC-MS, Cary 17 (UV), and Perkin-Elmer LS-5B Luminescence spectrometer. A dye laser was constructed and operated in the non-flowing (static) mode and had no tuning capability. […] Laser energy outputs were measured with an accuracy of ±5% by a Scientech 365 power and energy meter.
(§1) Light absorption, luminescence, and laser activity properties for the dyes 7 are described in Table VI. Each recorded UV absorption was restricted to the highest wave length. Fluorescence quantum yields of the dyes were determined for ethanol solutions with excitation at 450 and 460 nm by reference to acridine orange, .PHI.0.46, in ethanol; for the dye 7p the reference was R-6G, <P 0.90. Melting points were obtained from a Mel-Temp II device and were uncorrected. The solvent for ^1 H NMR spectra was chloroform-d with tetramethylsilane as an internal standard. Elemental analyses were obtained from Midwest Micro Lab, Indianapolis, Ind. and Galbraith Laboratories, Inc., Knoxville, Tenn. Solvents were removed by rotary evaporation under reduced pressure unless indicated otherwise. Column chromatography was performed on silica gel. Molecular weights were confirmed by EI-MS for the pyrrole 4j 193 and for laser dyes 7d 346, 7e 374, 7g 374, 7i 342, 7j 314 and 7x 360. IR absorption data satisfactorily supported structure assignments for the laser dyes 7.
^[b] 2 × 10^-4 M in ethanol except where noted otherwise.

[8] = UV light absorption (λmax, log ε); type: physicochemical; details: for log ε: solvent as for λmax (ethanol except where noted)
Protocol: as §1, with “Each” for “Light absorption, luminescence, and laser activity properties for the dyes 7 are described in Table VI. Each”, “0.90. […]” for “0.90.”, “gel.” for “gel. Molecular weights were confirmed by EI-MS for the pyrrole 4j 193 and for laser dyes 7d 346, 7e 374, 7g 374, 7i 342, 7j 314 and 7x 360. IR absorption data satisfactorily supported structure assignments for the laser dyes 7.”
5 × 10^-6 M in ethanol except where noted otherwise.

[9] = P-BF2 dyes dispersed in acrylic co-polymer (solid-state laser)
From the text: Any laser dye of the present invention may be substituted for the dye in any of the examples of that incorporated patent. The matrix generally includes solid polymeric host laser rods prepared using bulk polymerization of acrylic acid ester comonomers.

[10] = 2 × 10^-4 M in ethanol, Ref [2]

Structure (SMILES): CCN=c1cc2oc3cc(NCC)c(C)cc3c(-c3ccccc3C(=O)OCC)c-2cc1C [Rhodamine 590, reference compound]
Life [1]: 15 kJ/L

Structure (SMILES): c1ccc2cc3ccccc3cc2c1 [anthracene, reference compound]
λf ([2]; literature): 400 nm

Structure (SMILES): CCN=c1cc2oc3cc(NCC)c(C)cc3c(-c3ccccc3C(=O)OCC)c-2cc1C [Compound R-6G, reference compound]
fluorescence quantum yield of reference ([2]; reference standard): 0.90 | photostability in methanol [3]: 1500 pulses

Structure (SMILES): CC1=C(C)C(C)=[N+]2C1=C(C)c1c(C)c(C)c(C)n1[B-]2(F)F [Compound 7b]
λmax [4]: 518 nm | log ε [4]: 4.67 | λf [2, 10]: 546 nm | .PHI.f ([2]; Ref [2]): 0.70

Structure (SMILES): CCC1=C2C(C)=CC(C)=[N+]2[B-](F)(F)n2c(C)cc(C)c21 [III, 4,4-difluoro-1,3,5,7-tetramethyl-8-ethyl-4-bora-3a,4a-diaza-s-indacene]
Eo after 1000 S at 25 J ([1]; footnote to Life, after 1000 S at 25 J): ~ 80 mJ

Further lines, with some results ahead:

Color of Fluorescence, Room light ([5]; (CF3)2 CHOH): green | Color of Fluorescence, UV ([5]; (CF3)2 CHOH): green | Color of Solution ([5]; (CF3)2 CHOH): yellow | Solubility ([5]; (CF3)2 CHOH): soluble | Color of Fluorescence, Room light ([5]; CClF2 --CFCl2): green | Color of Fluorescence, UV ([5]; CClF2 --CFCl2): green | Color of Solution ([5]; CClF2 --CFCl2): yellow | Color of Solution ([5]; CF3 CH2 OH): green | Solubility ([5]; CH2 Cl2): soluble | Solubility ([5]; H2 O): insoluble | fluorescence after irradiation (photostability) ([6]; 0.1 g in 250 ml CH3 OH and 10 ml CH2 Cl2, sun lamp, 8 days): no fluorescence was observed | Life [1]: ~50 kJ/L
Structure (SMILES): CC1=CC(C)=[N+]2C1=C(C)c1c(C)cc(C)n1[B-]2(F)F [Compound 7a, 4,4-difluoro-1,3,5,7,8-pentamethyl-4-bora-3a,4a-diaza-s-indacene]
visual change in fluorescence (photostability) ([6]; 0.1 g in 50 ml dichloromethane, sun lamp, 22 days): No visual change in fluorescence was observed | wavelength of incident light that produced the greatest fluorescence ([7]; FIG. 2, in ethanol): 500-550 nm | λmax [4]: 493 nm | log ε [4]: 4.90 | λf [2, 10]: 519 nm | .PHI.f ([2]; Ref [2]): 0.99

λmax ([8]; 2 × 10^-4 M in p-dioxan): 556 nm | log ε [8]: 4.98 | λf ([7]; 2 × 10^-4 M in p-dioxan): 589 nm | .PHI.f (fluorescence quantum yield) [7]: 0.82
Structure (SMILES): CCOC(=O)C1=C(C)C2=C(C#N)c3c(C)c(C(=O)OCC)c(C)n3[B-](F)(F)[N+]2=C1C [Compound 7aa, diethyl 1,3,5,7-tetramethyl-8-cyanopyrromethene-2,6-dicarboxylate-BF2 complex]

λmax ([8]; 5 × 10^-6 M in ethanol): 535 nm | log ε [8]: > 4.8 and 4.93 | λf ([7]; 2 × 10^-4 M in ethanol): 560 nm
Structure (SMILES): CC1=C2C=C3CCCCC3=[N+]2[B-](F)(F)n2c1cc1c2CCCC1 [Compound 7h, 2,3,6,7-bistetramethylene-8-methylpyrromethene-BF2 complex]

λmax ([8]; 5 × 10^-6 M in ethanol): 522 nm | log ε [8]: > 4.8 and 4.91 | λf ([7]; 2 × 10^-4 M in ethanol): 552 nm
Structure (SMILES): CC1=C2CCCCC2=[N+]2C1=C(C)c1c(C)c3c(n1[B-]2(F)F)CCCC3 [Compound 7i]

solubility in the polymer matrix [9]: particularly soluble
Structure (SMILES): CCC1=C(C)C2=C(C)c3c(C)c(CC)c(C)n3[B-](F)(F)[N+]2=C1C [Compound 7c, 1,3,5,7,8-pentamethyl-2,6-diethylpyrromethene-BF2 complex]
λmax [4]: 517 nm | log ε [4]: 4.81 | λf [2, 10]: 546 nm | .PHI.f ([2]; Ref [2]): 0.83

λmax ([8]; 5 × 10^-6 M in ethanol): 521 nm | log ε [8]: 4.92 | λf ([7]; 2 × 10^-4 M in ethanol): 551 nm | .PHI.f (fluorescence quantum yield) [7]: 0.61
Structure (SMILES): CC1=[N+]2C(=Cc3c(-c4ccccc4)cc(C)n3[B-]2(F)F)C(c2ccccc2)=C1 [Compound 7w, 1,7-diphenyl-3,5-dimethylpyrromethene-BF2 complex]

Source: patent US5446157A, “Boron difluoride compounds useful in photodynamic therapy and production of laser light” (priority 1993, dated 1995)
